Article PMC7247319, “The mitochondria-targeted peptide SS-31 binds lipid bilayers and modulates surface electrostatics as a key component of its mechanism of action” (The Journal of Biological Chemistry, 2020)
Where a SMILES comes first, the peptide text is derived from it. [ ]: non-standard residue; d: D form. Dmt = Cc1cc(O)cc(C)c1C[C@H](N)C(=O)O

Tested on: LUVs containing 20% TOCL or 20% POPG
Experiment: ANS fluorescence reporter of surface potential of model membranes
Details: increasing [peptide]/[lipid]eff, 20% TOCL or 20% POPG LUVs
Protocol: Figure 3. SS-31 binding and surface electrostatics. A, binding isotherms. Peptide was titrated with LUVs of the indicated composition (20% TOCL, [SS-31] = 7.5 μM and 20% POPG, [SS-31] = 3.8 μM) at 30-nmol total lipid increments in the presence of different concentrations of added KCl. Values shown are means ± S.D. (error bars) (n = 3), and lines show data fits based on Equation S3. […] B and C, effect of SS-31 binding on surface charge. Measurements of ζ (B) and ANS fluorescence (C) are shown as a function of [SS-31]/[lipid]^eff for membranes containing 20% TOCL and 20% POPG as indicated. Values shown are means ± S.D. (error bars) (n = 3).
To continue this analysis, we determined the relationship between SS-31 binding and surface electrostatics by two complementary approaches. […] As an independent technique, we measured the effect of SS-31 on surface electrostatics using 1-anilinonaphthalene-8-sulfonic acid (ANS), a fluorescent reporter whose binding to anionic bilayers increases as the magnitude of the ψs is reduced, measured as an increase in probe emission intensity ([42]) (Fig. 3C and Fig. S9D). […]
Steady-state fluorescence measurements were performed with a Fluorolog 3-22 spectrofluorometer (HORIBA Jobin-Yvon) equipped with photon-counting electronics, double-grating excitation and emission monochromators, automated Glan–Thompson polarizers, and a 450-watt xenon lamp. […]

With `Cc1cc(O)cc(C)c1C[C@H](NC(=O)[C@H](N)CCCNC(=N)N)C(=O)N[C@@H](CCCCN)C(=O)N[C@@H](Cc1ccccc1)C(N)=O` [SS-31, D-Arg-2′6′-dimethyl-Tyr-Lys-Phe-NH2] (H-[dR][Dmt]KF-NH2) the “effect on ANS-detected surface potential (ψs) of anionic model membranes” value was “saturable ANS-detected reduction in the ψs”.
